Laboratory results reported in publication PMC5218480 (PLoS ONE, 2017).

Test system: MV-4-11 cells
Assay: Gene expression microarray analysis (Affymetrix PrimeView) and GSEA
Format: cell-based, human
Parameters: RFU PODN (11730768_x_at) / Fold change /veh PODN (11730768_x_at) / RFU LINC00158 (11744669_a_at) / Fold change /veh LINC00158 (11744669_a_at) / RFU DUSP10 (11751237_a_at) / Fold change /veh DUSP10 (11751237_a_at) / RFU ID3 (11757404_x_at) / Fold change /veh ID3 (11757404_x_at) / RFU PLEKHG5 (11737974_s_at) / Fold change /veh PLEKHG5 (11737974_s_at) / RFU LRRC4B (11730491_at) / Fold change /veh LRRC4B (11730491_at) / RFU GIMAP4 (11747438_a_at) / Fold change /veh GIMAP4 (11747438_a_at) / RFU KRT8 (11758183_x_at) / Fold change /veh KRT8 (11758183_x_at) / RFU CNN1 (11734310_a_at) / Fold change /veh CNN1 (11734310_a_at) / RFU VPS37D (11726825_at) / Fold change /veh VPS37D (11726825_at) / RFU C10orf10 (11716522_x_at) / Fold change /veh C10orf10 (11716522_x_at) / RFU KIR2DL2 /// KIR2DL4 /// KIR2DL5A /// KIR2DL5B /// KIR2DS1 /// KIR2DS2 /// KIR2DS3 /// KIR2DS4 /// KIR3DL3 /// KIR3DL3 /// KIR3DS1 (11738374_at) / Fold change /veh KIR2DL2 /// KIR2DL4 /// KIR2DL5A /// KIR2DL5B /// KIR2DS1 /// KIR2DS2 /// KIR2DS3 /// KIR2DS4 /// KIR3DL3 /// KIR3DL3 /// KIR3DS1 (11738374_at) / RFU C1QL1 (11718748_at) / Fold change /veh C1QL1 (11718748_at) / RFU TMPRSS4 (11747572_a_at) / Fold change /veh TMPRSS4 (11747572_a_at) / RFU HAMP (11756126_x_at) / Fold change /veh HAMP (11756126_x_at) / RFU RNFT2 (11725882_a_at) / Fold change /veh RNFT2 (11725882_a_at) / RFU NR4A2 (11747474_a_at) / Fold change /veh NR4A2 (11747474_a_at) / RFU ABCC12 (11746883_a_at) / Fold change /veh ABCC12 (11746883_a_at) / RFU TMEM136 (11760407_x_at) / Fold change /veh TMEM136 (11760407_x_at) / RFU CLDN22 /// WWC2 (11732394_at) / Fold change /veh CLDN22 /// WWC2 (11732394_at) / RFU HLA-DPB1 (11760878_x_at) / Fold change /veh HLA-DPB1 (11760878_x_at) / RFU SPINT1 (11716480_a_at) / Fold change /veh SPINT1 (11716480_a_at) / RFU GAP43 (11754022_s_at) / Fold change /veh GAP43 (11754022_s_at) / RFU A4GNT (11735810_at) / Fold change /veh A4GNT (11735810_at) / RFU PRB3 (11715151_x_at) / Fold change /veh PRB3 (11715151_x_at) / RFU TUBB4B (11761932_at) / Fold change /veh TUBB4B (11761932_at) / RFU CAPN14 (11732068_a_at) / Fold change /veh CAPN14 (11732068_a_at) / RFU TMCC2 (11721928_a_at) / Fold change /veh TMCC2 (11721928_a_at) / RFU IRGQ (11745062_a_at) / Fold change /veh IRGQ (11745062_a_at) / RFU FAM174B (11720279_a_at) / Fold change /veh FAM174B (11720279_a_at) / RFU TMPRSS4 (11748680_a_at) / Fold change /veh TMPRSS4 (11748680_a_at) / RFU FAM212B (11763350_a_at) / Fold change /veh FAM212B (11763350_a_at) / RFU PLEKHG5 (11743358_a_at) / Fold change /veh PLEKHG5 (11743358_a_at) / RFU ZSCAN30 (11745921_a_at) / Fold change /veh ZSCAN30 (11745921_a_at) / RFU CMKLR1 (11741424_a_at) / Fold change /veh CMKLR1 (11741424_a_at) / RFU LOC101060620 /// MAPK8IP1 (11723275_at) / Fold change /veh LOC101060620 /// MAPK8IP1 (11723275_at) / RFU SPTSSB (11747773_x_at) / Fold change /veh SPTSSB (11747773_x_at) / RFU PRSS12 (11739890_at) / Fold change /veh PRSS12 (11739890_at) / RFU BIN1 (11741810_x_at) / Fold change /veh BIN1 (11741810_x_at) / RFU WNT11 (11732464_a_at) / Fold change /veh WNT11 (11732464_a_at) / RFU C10orf10 (11716521_a_at) / Fold change /veh C10orf10 (11716521_a_at) / RFU C5orf56 (11738089_at) / Fold change /veh C5orf56 (11738089_at) / RFU CYB561 (11721691_x_at) / Fold change /veh CYB561 (11721691_x_at) / RFU ANKRD19P (11752326_a_at) / Fold change /veh ANKRD19P (11752326_a_at) / RFU OR2T12 /// OR2T33 /// OR2T8 (11738714_s_at) / Fold change /veh OR2T12 /// OR2T33 /// OR2T8 (11738714_s_at) / RFU VCAN (11748164_a_at) / Fold change /veh VCAN (11748164_a_at) / RFU JSRP1 (11732532_at) / Fold change /veh JSRP1 (11732532_at) / RFU KRTAP10-11 (11738290_x_at) / Fold change /veh KRTAP10-11 (11738290_x_at) / RFU MYO3A (11730013_a_at) / Fold change /veh MYO3A (11730013_a_at) / RFU EBF3 (11725865_a_at) / Fold change /veh EBF3 (11725865_a_at) / RFU CAMK2N1 (11719241_x_at) / Fold change /veh CAMK2N1 (11719241_x_at) / RFU C5orf56 (11738088_a_at) / Fold change /veh C5orf56 (11738088_a_at) / RFU OLFML3 (11715873_a_at) / Fold change /veh OLFML3 (11715873_a_at) / RFU LOC100653217 /// NTM (11731650_a_at) / Fold change /veh LOC100653217 /// NTM (11731650_a_at) / RFU MAPK11 (11762145_a_at) / Fold change /veh MAPK11 (11762145_a_at) / RFU FIZ1 (11724087_x_at) / Fold change /veh FIZ1 (11724087_x_at) / RFU OASL (11726364_x_at) / Fold change /veh OASL (11726364_x_at) / RFU SOX15 (11748057_x_at) / Fold change /veh SOX15 (11748057_x_at) / RFU CD79A (11719716_a_at) / Fold change /veh CD79A (11719716_a_at) / RFU HIST1H1D (11736915_at) / Fold change /veh HIST1H1D (11736915_at) / RFU CASKIN2 (11723855_a_at) / Fold change /veh CASKIN2 (11723855_a_at) / RFU LOC730098 (11760151_x_at) / Fold change /veh LOC730098 (11760151_x_at) / RFU OR4N2 (11742367_at) / Fold change /veh OR4N2 (11742367_at) / RFU PRRT2 (11749266_a_at) / Fold change /veh PRRT2 (11749266_a_at) / RFU SNX32 (11753110_a_at) / Fold change /veh SNX32 (11753110_a_at) / RFU CDHR5 (11726645_a_at) / Fold change /veh CDHR5 (11726645_a_at) / RFU RCAN1 (11760418_a_at) / Fold change /veh RCAN1 (11760418_a_at) / RFU FAM167A (11723789_a_at) / Fold change /veh FAM167A (11723789_a_at) / RFU FAM26E (11764081_at) / Fold change /veh FAM26E (11764081_at) / RFU ISYNA1 (11749810_s_at) / Fold change /veh ISYNA1 (11749810_s_at) / RFU ACY1 (11761880_at) / Fold change /veh ACY1 (11761880_at) / RFU 11764098_at / Fold change /veh 11764098_at / RFU SAMD14 (11745864_x_at) / Fold change /veh SAMD14 (11745864_x_at) / RFU NPB (11741838_a_at) / Fold change /veh NPB (11741838_a_at) / RFU TMPRSS6 (11731388_a_at) / Fold change /veh TMPRSS6 (11731388_a_at) / RFU KRTAP10-2 (11738614_at) / Fold change /veh KRTAP10-2 (11738614_at) / RFU ARHGAP8 /// PRR5-ARHGAP8 (11727945_x_at) / Fold change /veh ARHGAP8 /// PRR5-ARHGAP8 (11727945_x_at) / RFU KRTAP5-7 /// NADSYN1 (11734609_at) / Fold change /veh KRTAP5-7 /// NADSYN1 (11734609_at) / RFU RASL12 (11751679_a_at) / Fold change /veh RASL12 (11751679_a_at) / RFU CDKN2B (11736163_a_at) / Fold change /veh CDKN2B (11736163_a_at) / RFU PRF1 (11729649_at) / Fold change /veh PRF1 (11729649_at) / RFU, ZNF638 /// ZNF638-IT1 / Fold change vs veh, ZNF638 /// ZNF638-IT1 / RFU, PANK3 / Fold change vs veh, PANK3 / RFU, SH3YL1 / Fold change vs veh, SH3YL1 / RFU, ZEB2 / Fold change vs veh, ZEB2 / RFU, NRIP1 / Fold change vs veh, NRIP1 / RFU, PTTG1IP / Fold change vs veh, PTTG1IP / RFU, CAPN2 / Fold change vs veh, CAPN2 / RFU, MED14 / Fold change vs veh, MED14 / RFU, SNORA58 / Fold change vs veh, SNORA58 / RFU, C1orf63 / Fold change vs veh, C1orf63 / RFU, LRRFIP1 / Fold change vs veh, LRRFIP1 / RFU, NDUFAF7 / Fold change vs veh, NDUFAF7 / RFU, SLC12A2 / Fold change vs veh, SLC12A2 / RFU, IBTK / Fold change vs veh, IBTK / RFU, ESF1 / Fold change vs veh, ESF1 / Fold change vs veh, TMEM50B / RFU, TAOK1 / Fold change vs veh, TAOK1 / RFU, ACBD3 / Fold change vs veh, ACBD3 / RFU, TMA16 / Fold change vs veh, TMA16 / RFU, RWDD3 / Fold change vs veh, RWDD3 / RFU, BCAT1 / Fold change vs veh, BCAT1 / RFU, EDEM3 / Fold change vs veh, EDEM3 / RFU, TMEM33 / Fold change vs veh, TMEM33 / RFU, WDR75 / Fold change vs veh, WDR75 / RFU, AHCTF1 / Fold change vs veh, AHCTF1 / RFU, TFRC / Fold change vs veh, TFRC / RFU, ZDHHC17 / Fold change vs veh, ZDHHC17 / RFU, NOM1 / Fold change vs veh, NOM1 / RFU, ARL8B / Fold change vs veh, ARL8B / RFU, ZBTB11 / Fold change vs veh, ZBTB11 / RFU, TAMM41 / Fold change vs veh, TAMM41 / RFU, KIAA1704 /// LOC100996395 / Fold change vs veh, KIAA1704 /// LOC100996395 / RFU, ING1 / Fold change vs veh, ING1 / RFU, TRMT61B / Fold change vs veh, TRMT61B / RFU, FUBP3 / Fold change vs veh, FUBP3 / RFU, TP53 / Fold change vs veh, TP53 / RFU, TNKS2 / Fold change vs veh, TNKS2 / RFU, ZFP14 / Fold change vs veh, ZFP14 / RFU, ACTR2 / Fold change vs veh, ACTR2 / RFU, PPP3R1 / Fold change vs veh, PPP3R1 / RFU, PIK3R1 / Fold change vs veh, PIK3R1 / RFU, HNRNPA1 / Fold change vs veh, HNRNPA1 / RFU, RNF170 / Fold change vs veh, RNF170 / RFU, ZNF28 / Fold change vs veh, ZNF28 / RFU, RNGTT / Fold change vs veh, RNGTT / RFU, OGT / Fold change vs veh, OGT / RFU, BRD1 / Fold change vs veh, BRD1 / RFU, MARS / Fold change vs veh, MARS / RFU, ZNF655 / Fold change vs veh, ZNF655 / RFU, FAHD1 / Fold change vs veh, FAHD1 / RFU, BDP1 / Fold change vs veh, BDP1 / RFU, LRRCC1 / Fold change vs veh, LRRCC1 / RFU, ARID1A / Fold change vs veh, ARID1A / RFU, ZNF146 / Fold change vs veh, ZNF146 / RFU, ZNF330 / Fold change vs veh, ZNF330 / RFU, GPN3 / Fold change vs veh, GPN3 / RFU, C9orf123 / Fold change vs veh, C9orf123 / RFU, N4BP2L2 / Fold change vs veh, N4BP2L2 / RFU, ARFIP1 / Fold change vs veh, ARFIP1 / RFU, FAM179B / Fold change vs veh, FAM179B / RFU, BCL10 / Fold change vs veh, BCL10 / RFU, UHRF1BP1L / Fold change vs veh, UHRF1BP1L / RFU, BET1 / Fold change vs veh, BET1 / RFU, CNOT2 / Fold change vs veh, CNOT2 / RFU, ZNF268 / Fold change vs veh, ZNF268 / Fold change vs veh, ZNF507 / RFU, DGCR2 / Fold change vs veh, DGCR2 / RFU, WDSUB1 / Fold change vs veh, WDSUB1 / Fold change vs veh, HSP90B1 /// MIR3652 / RFU, ADSS / Fold change vs veh, ADSS / RFU, GK / Fold change vs veh, GK / RFU, ZNF148 / Fold change vs veh, ZNF148 / RFU, TAF9 / Fold change vs veh, TAF9 / RFU, SLC1A5 / Fold change vs veh, SLC1A5 / RFU, SLMO2 / Fold change vs veh, SLMO2 / RFU, ABCC4 / Fold change vs veh, ABCC4 / RFU, LOC101060439 /// RAP1B / Fold change vs veh, LOC101060439 /// RAP1B / RFU, RFX7 / Fold change vs veh, RFX7 / RFU, GTPBP10 / Fold change vs veh, GTPBP10 / RFU, CNEP1R1 / Fold change vs veh, CNEP1R1 / RFU, BIVM-ERCC5 /// ERCC5 / Fold change vs veh, BIVM-ERCC5 /// ERCC5 / RFU, ILF3 / Fold change vs veh, ILF3 / RFU 11762660_at / Fold change /veh 11762660_at / RFU VCAN (11757783_s_at) / Fold change /veh VCAN (11757783_s_at) / RFU DDX43 (11728927_at) / Fold change /veh DDX43 (11728927_at) / RFU KRT8 (11758188_x_at) / Fold change /veh KRT8 (11758188_x_at) / RFU NKD1 (11759106_at) / Fold change /veh NKD1 (11759106_at) / RFU SRD5A1 (11742802_a_at) / Fold change /veh SRD5A1 (11742802_a_at) / RFU TPSAB1 /// TPSB2 (11721975_s_at) / Fold change /veh TPSAB1 /// TPSB2 (11721975_s_at) / RFU GSTM3 (11746129_a_at) / Fold change /veh GSTM3 (11746129_a_at) / RFU IL23R (11737362_x_at) / Fold change /veh IL23R (11737362_x_at) / RFU TMEM51 (11727254_a_at) / Fold change /veh TMEM51 (11727254_a_at) / RFU PIWIL2 (11732686_x_at) / Fold change /veh PIWIL2 (11732686_x_at) / RFU ORM1 (11744905_x_at) / Fold change /veh ORM1 (11744905_x_at) / RFU CCDC152 (11743942_at) / Fold change /veh CCDC152 (11743942_at) / RFU ECM1 (11717891_a_at) / Fold change /veh ECM1 (11717891_a_at) / RFU IL23R (11748794_a_at) / Fold change /veh IL23R (11748794_a_at) / RFU TNFAIP8L3 (11732012_x_at) / Fold change /veh TNFAIP8L3 (11732012_x_at) / RFU MBOAT4 (11741988_at) / Fold change /veh MBOAT4 (11741988_at) / RFU 11764193_at / Fold change /veh 11764193_at / RFU TMEM53 (11763286_at) / Fold change /veh TMEM53 (11763286_at) / RFU MAGEB2 (11727129_at) / Fold change /veh MAGEB2 (11727129_at) / RFU TMEM200A (11744735_a_at) / Fold change /veh TMEM200A (11744735_a_at) / RFU CCDC152 (11751479_a_at) / Fold change /veh CCDC152 (11751479_a_at) / RFU FAM211A (11726209_a_at) / Fold change /veh FAM211A (11726209_a_at) / RFU RGS16 (11746705_a_at) / Fold change /veh RGS16 (11746705_a_at) / RFU VCAN (11755009_s_at) / Fold change /veh VCAN (11755009_s_at) / RFU RHOB (11743442_s_at) / Fold change /veh RHOB (11743442_s_at) / RFU RGS16 (11720943_a_at) / Fold change /veh RGS16 (11720943_a_at) / RFU RGS16 (11720944_at) / Fold change /veh RGS16 (11720944_at) / RFU, VPS4B / Fold change vs veh, VPS4B / RFU, CREB1 / Fold change vs veh, CREB1 / RFU, DNAJC13 / Fold change vs veh, DNAJC13 / RFU, GNAQ / Fold change vs veh, GNAQ / RFU, CDK5R1 / Fold change vs veh, CDK5R1 / RFU, ZRANB3 / Fold change vs veh, ZRANB3 / RFU, CUL4A / Fold change vs veh, CUL4A / RFU, CCNY / Fold change vs veh, CCNY / RFU, UFL1 / Fold change vs veh, UFL1 / RFU, COG3 / Fold change vs veh, COG3 / RFU, DIAPH2 / Fold change vs veh, DIAPH2 / RFU, SKA2 / Fold change vs veh, SKA2 / RFU, AFF3 / Fold change vs veh, AFF3 / RFU, LMF1 / Fold change vs veh, LMF1 / RFU, IPO11 / Fold change vs veh, IPO11 / RFU, DFFB / Fold change vs veh, DFFB / RFU, FOXP1 / Fold change vs veh, FOXP1 / RFU, CARD8 / Fold change vs veh, CARD8 / RFU, STRN3 / Fold change vs veh, STRN3 / RFU, ADK / Fold change vs veh, ADK / RFU, RASSF2 / Fold change vs veh, RASSF2 / RFU, WIPF1 / Fold change vs veh, WIPF1 / RFU, LARP1B / Fold change vs veh, LARP1B / RFU, RASA1 / Fold change vs veh, RASA1 / RFU, RB1 / Fold change vs veh, RB1 / RFU, PPFIA1 / Fold change vs veh, PPFIA1 / RFU, MAT2A / Fold change vs veh, MAT2A / RFU, CCT5 / Fold change vs veh, CCT5 / RFU, WDR92 / Fold change vs veh, WDR92 / RFU, CUX1 / Fold change vs veh, CUX1 / RFU, TTC7A / Fold change vs veh, TTC7A / RFU, TMEM135 / Fold change vs veh, TMEM135 / RFU, DEPTOR / Fold change vs veh, DEPTOR / RFU, CPM / Fold change vs veh, CPM / RFU, DNAJB6 / Fold change vs veh, DNAJB6 / RFU, CACNA2D3 / Fold change vs veh, CACNA2D3 / RFU, DTX4 / Fold change vs veh, DTX4 / RFU, TFCP2 / Fold change vs veh, TFCP2 / RFU, GMCL1 /// GMCL1P1 / Fold change vs veh, GMCL1 /// GMCL1P1 / RFU, AEBP2 / Fold change vs veh, AEBP2 / RFU, SNHG1 /// SNORD22 /// SNORD25 /// SNORD26 /// SNORD27 /// SNORD28 /// SNORD29 /// SNORD31 / Fold change vs veh, SNHG1 /// SNORD22 /// SNORD25 /// SNORD26 /// SNORD27 /// SNORD28 /// SNORD29 /// SNORD31 / Fold change (Aza/veh), C12orf56 (ProbeSet 11735607_a_at) / Fold change (ACY-1035/veh), C12orf56 (ProbeSet 11735607_a_at) / Fold change (Aza/veh), FGFR1OP (ProbeSet 11751329_s_at) / Fold change (ACY-1035/veh), FGFR1OP (ProbeSet 11751329_s_at) / Fold change (Aza/veh), VPS36 (ProbeSet 11739960_a_at) / Fold change (ACY-1035/veh), VPS36 (ProbeSet 11739960_a_at) / RFU SYPL1 (11715823_x_at) / Fold change /veh SYPL1 (11715823_x_at) / RFU IGFBP7 (11715501_s_at) / Fold change /veh IGFBP7 (11715501_s_at) / RFU REEP3 (11722064_at) / Fold change /veh REEP3 (11722064_at) / RFU IGLL1 (11728026_x_at) / Fold change /veh IGLL1 (11728026_x_at): dose or concentration left out as unconfirmed
Details: MV-4-11 cells, 48 hours

## Nc1ccc(-c2cccs2)cc1NC(=O)c1ccc2c(c1)cc(C1CC1)n2CCN1CCOCC1 [ACY-1035]
  RFU CD79A (11719716_a_at): 10.45 RFU
